Test results reported in patent US20220265629A1, “TREATMENT OF SYSTOLIC DYSFUNCTION AND HEART FAILURE WITH REDUCED EJECTION FRACTION WITH THE COMPOUND (R)-4-(1-((3-(DIFLUOROMETHYL)-1-METHYL-1H-PYRAZOL-4-YL)SULFONYL)-1-FLUOROETHYL)-N-(ISOXAZOL-3-YL)PIPERIDINE-1-CARBOXAMIDE” (MyoKardia, Inc., priority 2019, published 2022).

Test system: healthy subjects
Assay: Single ascending oral dose study in healthy volunteers: transthoracic echocardiography (TTE) pharmacodynamics
Assay type: in vivo, human
Details: for DBP placebo-corrected change from Baseline (LS mean difference) / E/A ratio placebo-corrected change from Baseline (LS mean difference) / E/e′(lateral) placebo-corrected change from Baseline (LS mean difference) / HR placebo-corrected change from Baseline (LS mean difference) / IVCT placebo-corrected change from Baseline (LS mean difference) / IVRT placebo-corrected change from Baseline (LS mean difference) / LVEDD placebo-corrected change from Baseline (LS mean difference) / LVEDV placebo-corrected change from Baseline (LS mean difference) / LVEF placebo-corrected change from Baseline (LS mean difference) / LVESD placebo-corrected change from Baseline (LS mean difference) / LVESV placebo-corrected change from Baseline (LS mean difference) / LVFS placebo-corrected change from Baseline (LS mean difference) / LVGCS placebo-corrected change from Baseline (LS mean difference) / LVGLS placebo-corrected change from Baseline (LS mean difference) / MPI placebo-corrected change from Baseline (LS mean difference) / PEP placebo-corrected change from Baseline (LS mean difference) / Peak A placebo-corrected change from Baseline (LS mean difference) / Peak E placebo-corrected change from Baseline (LS mean difference) / SBP placebo-corrected change from Baseline (LS mean difference) / SET placebo-corrected change from Baseline (LS mean difference) / Stroke Volume placebo-corrected change from Baseline (LS mean difference): 6 hours post-dose
Procedure: To assess pharmacodynamic effects, serial echocardiograms were performed. The sonographers used in the study completed Echo protocol training and submitted an example of a study for evaluation to the core laboratory for evaluation. The core TTE lab certified that the sonographer was able to perform the TTEs at a level satisfactory for obtaining the required protocol data.
These criteria were chosen to prevent subjects from having prolongation of SET that might lead to myocardial ischemia. Dose escalation stopping criteria also included observation of a Baseline-corrected, group mean relative increase of >20% in any 2 sequential TTE assessments in at least 2 measures of LV contractility: LVOT-VTI, LVFS, LVEF, or LVSV in subjects receiving Compound I. Placebo-controlled evaluation may have been considered. For this comparison, subjects who received placebo may have been pooled across cohorts.
SET as determined by TTE was assessed using summary statistics. Observations and change from Baseline were summarized by treatment at each time point and the maximum change from Baseline determined for each subject. In addition, categorical analyses were performed on the number of subjects with a change from Baseline>50 msec and the number of subjects with a change from Baseline>75 msec in 1 or any 2 sequential TTE assessments. The relationship to Compound I plasma concentration to SET was explored. An analysis of SET placebo-adjusted change from Baseline was also performed.
As the Cmax occurred at between 4 and 6 hours in most of the subjects, the TTE obtained at 6 hours postclose was considered the best timepoint to explore the relationship between concentration and pharmacological effect. TTEs obtained at 1.5 and 3 hours after dosing were before the Cmax and at 9 hours were after the peak Cmax. Based on the preclinical data, it was considered unlikely that there would be a prolonged lag between the Cmax and peak pharmacological effect. As the exposure after the administration of the 350 mg and 525 mg doses were very similar, it was decided to not only present the results from these groups separately, but also to combine the data from these groups. By combining the data from the 2 groups, the number of subjects closed was increased from 6 to 12, thus increasing the power to observe a statistically significant change from Baseline in the TTE parameters of interest.
An analysis of placebo-corrected change from Baseline at 6 hours postclose by Compound I plasma concentration bins is presented in Table 6 below.

[1] = 350 mg and 525 mg combined, 6 hours postdose
[2] = 350 mg and 525 mg combined, 12 hours postdose
[3] = concentration exceeded 2000 ng/mL (median 2592 ng/mL)
[4] = plasma concentrations >2000 ng/mL, 6 hours postdose

Cn1cc(S(=O)(=O)[C@@](C)(F)C2CCN(C(=O)Nc3ccon3)CC2)c(C(F)F)n1 [Compound I, (R)-4-(1-((3-(difluoromethyl)-1-methyl-1H-pyrazol-4-yl)sulfonyl)-1-fluoroethyl)-N-(isoxazol-3-yl)piperidine-1-carboxamide]
LVEDD, highest observed change from Baseline (50 mg, 24 hours postdose): 0.103 (0.217) cm | LVEF, maximum mean (SD) increase (100 mg, 12 hours postdose): 4.83 (2.65) % | SET, observed mean (SD) increase (350 mg and 525 mg combined, 1.5 to 2 hours postdose): 18.0 (19.5) msec | LVEDV, mean (SD) decrease [1]: −9.98 (7.83) mL | LVESV, mean (SD) decrease [1]: −6.82 (5.99) mL | LVOT-VTI, mean (SD) increase [1]: 2.28 (1.43) cm | LVEDD, mean (SD) decrease [2]: −0.171 (0.177) cm | LVSV, mean (SD) increase [2]: 7.623 (7.842) mL | SET, largest observed mean (SD) increase (350 mg, 1.5 to 2 hours postdose): 19.2 (20.5) msec | LVOT-VTI, maximum change from Baseline (350 mg, 6 hours postdose): 2.54 (1.78) cm | LVSV, maximum mean (SD) increase (350 mg, 12 hours postdose): 10.848 (9.893) mL | LVEDV, largest mean (SD) decrease (525 mg, 6 hours postdose): −12.5 (6.96) mL | LVEF, maximum mean (SD) increase (525 mg, 6 hours postdose): 4.65 (1.45) % | LVESV, largest mean (SD) decrease (525 mg, 6 hours postdose): −9.21 (3.18) mL | LVEDD, largest observed mean (SD) decrease (525 mg, 12 hours postdose): −0.213 (0.221) cm | LVESD, largest observed mean (SD) decrease (525 mg, 12 hours postdose): −0.455 (0.357) cm | DBP placebo-corrected change from Baseline (LS mean difference) (plasma 0-1000 ng/mL): 2.277 mm Hg | E/A ratio placebo-corrected change from Baseline (LS mean difference) (plasma 0-1000 ng/mL): 0.150 | E/e′(lateral) placebo-corrected change from Baseline (LS mean difference) (plasma 0-1000 ng/mL): −0.235 | HR placebo-corrected change from Baseline (LS mean difference) (plasma 0-1000 ng/mL): −1.070 bpm | IVCT placebo-corrected change from Baseline (LS mean difference) (plasma 0-1000 ng/mL): 0.677 ms | IVRT placebo-corrected change from Baseline (LS mean difference) (plasma 0-1000 ng/mL): 1.526 ms | LVEDD placebo-corrected change from Baseline (LS mean difference) (plasma 0-1000 ng/mL): −0.014 cm | LVEDV placebo-corrected change from Baseline (LS mean difference) (plasma 0-1000 ng/mL): -2.210 mL | LVEF placebo-corrected change from Baseline (LS mean difference) (plasma 0-1000 ng/mL): 0.322% | LVESD placebo-corrected change from Baseline (LS mean difference) (plasma 0-1000 ng/mL): 0.025 cm | LVESV placebo-corrected change from Baseline (LS mean difference) (plasma 0-1000 ng/mL): -1.204 mL | LVFS placebo-corrected change from Baseline (LS mean difference) (plasma 0-1000 ng/mL): −0.560% | LVGCS placebo-corrected change from Baseline (LS mean difference) (plasma 0-1000 ng/mL): −1.076% | LVGLS placebo-corrected change from Baseline (LS mean difference) (plasma 0-1000 ng/mL): −0.467% | MPI placebo-corrected change from Baseline (LS mean difference) (plasma 0-1000 ng/mL): −0.007 | PEP placebo-corrected change from Baseline (LS mean difference) (plasma 0-1000 ng/mL): -2.190 ms | Peak A placebo-corrected change from Baseline (LS mean difference) (plasma 0-1000 ng/mL): -3.09 cm/s | Peak E placebo-corrected change from Baseline (LS mean difference) (plasma 0-1000 ng/mL): -966000 ×10⁻⁶ cm/s | SBP placebo-corrected change from Baseline (LS mean difference) (plasma 0-1000 ng/mL): −0.623 mm Hg | SET placebo-corrected change from Baseline (LS mean difference) (plasma 0-1000 ng/mL): 10.623 ms | Stroke Volume placebo-corrected change from Baseline (LS mean difference) (plasma 0-1000 ng/mL): 2.631 mL | DBP placebo-corrected change from Baseline (LS mean difference) (plasma 1001-2000 ng/mL): 2.937 mm Hg | E/A ratio placebo-corrected change from Baseline (LS mean difference) (plasma 1001-2000 ng/mL): 0.177 | E/e′(lateral) placebo-corrected change from Baseline (LS mean difference) (plasma 1001-2000 ng/mL): 0.144 | HR placebo-corrected change from Baseline (LS mean difference) (plasma 1001-2000 ng/mL): 0.336 bpm | IVCT placebo-corrected change from Baseline (LS mean difference) (plasma 1001-2000 ng/mL): 1.412 ms | IVRT placebo-corrected change from Baseline (LS mean difference) (plasma 1001-2000 ng/mL): 0.148 ms | LVEDD placebo-corrected change from Baseline (LS mean difference) (plasma 1001-2000 ng/mL): −0.041 cm | LVEDV placebo-corrected change from Baseline (LS mean difference) (plasma 1001-2000 ng/mL): -6.100 mL | LVEF placebo-corrected change from Baseline (LS mean difference) (plasma 1001-2000 ng/mL): 2.176% | LVESD placebo-corrected change from Baseline (LS mean difference) (plasma 1001-2000 ng/mL): −0.159 cm | LVESV placebo-corrected change from Baseline (LS mean difference) (plasma 1001-2000 ng/mL): -4.101 mL | LVFS placebo-corrected change from Baseline (LS mean difference) (plasma 1001-2000 ng/mL): 3.549% | LVGCS placebo-corrected change from Baseline (LS mean difference) (plasma 1001-2000 ng/mL): −1.383% | LVGLS placebo-corrected change from Baseline (LS mean difference) (plasma 1001-2000 ng/mL): −1.274% | MPI placebo-corrected change from Baseline (LS mean difference) (plasma 1001-2000 ng/mL): −0.021 | PEP placebo-corrected change from Baseline (LS mean difference) (plasma 1001-2000 ng/mL): -5.487 ms | Peak A placebo-corrected change from Baseline (LS mean difference) (plasma 1001-2000 ng/mL): -2.87 cm/s | Peak E placebo-corrected change from Baseline (LS mean difference) (plasma 1001-2000 ng/mL): -1.43 cm/s | SBP placebo-corrected change from Baseline (LS mean difference) (plasma 1001-2000 ng/mL): 1.132 mm Hg | SET placebo-corrected change from Baseline (LS mean difference) (plasma 1001-2000 ng/mL): 23.049 ms | Stroke Volume placebo-corrected change from Baseline (LS mean difference) (plasma 1001-2000 ng/mL): 2.509 mL | DBP placebo-corrected change from Baseline (LS mean difference) (plasma >2000 ng/mL): 1.540 mm Hg | E/A ratio placebo-corrected change from Baseline (LS mean difference) (plasma >2000 ng/mL): −0.047 | E/e′(lateral) placebo-corrected change from Baseline (LS mean difference) (plasma >2000 ng/mL): −0.063 | HR placebo-corrected change from Baseline (LS mean difference) (plasma >2000 ng/mL): 2.871 bpm | IVCT placebo-corrected change from Baseline (LS mean difference) (plasma >2000 ng/mL): 6.115 ms | IVRT placebo-corrected change from Baseline (LS mean difference) (plasma >2000 ng/mL): 11.986 ms | LVEDD placebo-corrected change from Baseline (LS mean difference) (plasma >2000 ng/mL): −0.115 cm | LVEDV placebo-corrected change from Baseline (LS mean difference) (plasma >2000 ng/mL): -9.678 mL | LVEF placebo-corrected change from Baseline (LS mean difference) (plasma >2000 ng/mL): 3.219% | LVESD placebo-corrected change from Baseline (LS mean difference) (plasma >2000 ng/mL): −0.306 cm | LVESV placebo-corrected change from Baseline (LS mean difference) (plasma >2000 ng/mL): -6.031 mL | LVFS placebo-corrected change from Baseline (LS mean difference) (plasma >2000 ng/mL): 6.289% | LVGCS placebo-corrected change from Baseline (LS mean difference) (plasma >2000 ng/mL): −2.854% | LVGLS placebo-corrected change from Baseline (LS mean difference) (plasma >2000 ng/mL): −1.779% | MPI placebo-corrected change from Baseline (LS mean difference) (plasma >2000 ng/mL): 0.033 | PEP placebo-corrected change from Baseline (LS mean difference) (plasma >2000 ng/mL): -2.131 ms | Peak A placebo-corrected change from Baseline (LS mean difference) (plasma >2000 ng/mL): 657000 ×10⁻⁶ cm/s | Peak E placebo-corrected change from Baseline (LS mean difference) (plasma >2000 ng/mL): -5.3 cm/s | SBP placebo-corrected change from Baseline (LS mean difference) (plasma >2000 ng/mL): −1.572 mm Hg | SET placebo-corrected change from Baseline (LS mean difference) (plasma >2000 ng/mL): 25.645 ms | Stroke Volume placebo-corrected change from Baseline (LS mean difference) (plasma >2000 ng/mL): 8.197 mL | LVEDD, mean decrease [3]: 0.12 cm | LVEDV, mean decrease [3]: 9.68 mL | LVEF, mean absolute increase [3]: 3.2% | LVESD, mean decrease [3]: 0.31 cm | LVESV, mean decrease [3]: 6.03 mL | LVFS, mean absolute increase [3]: 6.3% | LVGCS, mean absolute decrease [3]: 2.85% | LVGLS, mean absolute decrease [3]: 1.78% | LVSV, mean increase [3]: 8.2% | SET, mean increase [3]: 25.7 ms | diastolic function/relaxation (E/A ratio and E/e′) (plasma concentrations >2000 ng/mL): no significant effects | SET, placebo-corrected change from Baseline (LS mean difference±SE) (plasma concentrations >2000 ng/mL (median 2425 ng/mL), 6 hours postdose): 25.6 ± 7.71 ms | IVRT (mitral inflow doppler), placebo-corrected change from Baseline (LS mean difference±SE) [4]: 12.0 ± 3.92 ms | LVEDV, placebo-corrected change from Baseline (LS mean difference±SE) [4]: -9.68 ± 2.95 mL | LVEF, placebo-corrected change from Baseline (LS mean difference±SE) [4]: 3.22±1.48% | LVESD, placebo-corrected change from Baseline (LS mean difference±SE) [4]: −0.306±0.077 cm | LVESV, placebo-corrected change from Baseline (LS mean difference±SE) [4]: -6.03 ± 1.87 mL | LVFS, placebo-corrected change from Baseline (LS mean difference±SE) [4]: 6.29±1.55% | LVGCS, placebo-corrected change from Baseline (LS mean difference±SE) [4]: -2.85 ± 0.99% | LVGLS, placebo-corrected change from Baseline (LS mean difference±SE) [4]: -1.78 ± 0.76% | stroke volume, placebo-corrected change from Baseline (LS mean difference±SE) [4]: 8.20 ± 3.99 mL
